Assay results published in patent US6468555B1, “Pesticidal compositions” (Sumitomo Chemical Company, Limited, priority 1999, dated 2002).

What was measured:
[1] = tested on: Bemisia argentifolii; assay: Pesticidal test against Bemisia argentifolii first-instar nymphs on cabbage seedlings (foliar spray); type: in vivo; conditions: 16 days after application
Source text: Pesticidal Test Against Bemisia argentifolii
Cabbage seedlings infested with first-instar nymphs of Bemisia argentifollii were uniformly sprayed using a spray gun with a water dilution in a prescribed concentration of a commercial product of compound A (trade name: Lano 10EC; available from Sumitomo Chemical Co., Ltd.), a commercial product of compound B (trade name: Baroque Flowable; available from Yashima Chemical Industry Co., Ltd.), or a mixture of the commercial product of compound A and the commercial product of compound B. After air drying, each of the cabbage seedlings was placed in a net cage and kept in a greenhouse. After 16 days from the application, the number of emergent adults was determined.

[2] = tested on: Aphis gossypii; assay: Pesticidal test against Aphis gossypii on potted cabbage plants (foliar spray); type: in vivo; conditions: 2.0 ppm active ingredient, 20 adults set free per pot; for Number of surviving aphids per pot After 3 days: 3 days after spraying; for Number of surviving aphids per pot After 6 days: 6 days after spraying
Source text: Pesticidal Test Against Aphis gossypii
Twenty adults of Aphis gossypii were set free on three-leafed cabbage plants in pots. These plants were uniformly sprayed using a spray gun with a water dilution in a prescribed concentration of a commercial product of compound A (trade name: Lano 10EC; available from Sumitomo Chemical Co., Ltd.), a commercial product of compound B (trade name: Baroque Flowable; available from Yashima Chemical Industry Co., Ltd.), or a mixture of the commercial product of compound A and the commercial product of compound B. After air drying, the pots were placed in a greenhouse. On a predetermined day after the application, the cabbage plants were examined for the number of aphids surviving thereon.

Compound | Number of emergent adults ([1]; 0.2 ppm, 108 nymphs used) | Number of surviving aphids per pot After 3 days [2] | Number of surviving aphids per pot After 6 days [2] | Number of emergent adults ([1]; 0.4 ppm, 125 nymphs used)
CC(COc1ccc(Oc2ccccc2)cc1)Oc1ccccn1 (stereo not drawn) [Compound A, 4-phenoxyphenyl 2-(2-pyridyloxy)propyl ether] | 13 | 45 | 11 | –
CCOc1cc(C(C)(C)C)ccc1C1COC(c2c(F)cccc2F)=N1 (stereo not drawn) [Compound B, 2-(2,6-difluorophenyl)-4-(2-ethoxy-4-tert-butyl-phenyl)-2-oxazoline] | – | 11 | 25 | 51
